From patent publication US20120034613A1, “Apparatus and Method for Testing Relationships Between Gene Expression and Physical Appearance of Skin” (NSE Products, Inc., priority 2010, published 2012)

Test system: EpidermFT™ Skin Model (EFT-400) full thickness skin cultures
Assay: Affymetrix GeneChip HG U133 Plus 2.0 microarray global gene expression, agent-exposed vs untreated skin cultures
Format: cell-based, human
Conditions: Salicin 0.5%, 24 hr
[1] = 219471_at C13orf18 /// LOC728970

## OCc1ccccc1O[C@@H]1O[C@H](CO)[C@@H](O)[C@H](O)[C@H]1O [Salicin, 2-(Hydroxymethyl)phenyl β-D-glucospyranoside]
215997_s_at CUL4B
  Direction: up
  Fold change: 2.138
217202_s_at GLUL
  Direction: up
  Fold change: 2.106
217739_s_at NAMPT
  Direction: up
  Fold change: 2.155
218574_s_at LMCD1
  Direction: up
  Fold change: 2.123
218665_at FZD4
  Direction: up
  Fold change: 2.078
218810_at ZC3H12A
  Direction: up
  Fold change: 2.117
219054_at C5orf23
  Direction: up
  Fold change: 2.096
219283_at C1GALT1C1
  Direction: up
  Fold change: 2.107
219284_at HSPBAP1
  Direction: up
  Fold change: 2.08
[1]
  Direction: up
  Fold change: 2.12
219558_at ATP13A3
  Direction: up
  Fold change: 2.138
219774_at CCDC93
  Direction: up
  Fold change: 2.13
219790_s_at NPR3
  Direction: up
  Fold change: 2.115
220253_s_at LRP12
  Direction: up
  Fold change: 2.096
221586_s_at E2F5
  Direction: up
  Fold change: 2.079
221881_s_at CLIC4
  Direction: up
  Fold change: 2.109
223758_s_at GTF2H2
  Direction: up
  Fold change: 2.138
224461_s_at AIFM2
  Direction: up
  Fold change: 2.132
224583_at COTL1
  Direction: up
  Fold change: 2.077
224978_s_at USP36
  Direction: up
  Fold change: 2.122
225034_at ST3GAL1
  Direction: up
  Fold change: 2.099
225185_at MRAS
  Direction: up
  Fold change: 2.155
225212_at SLC25A25
  Direction: up
  Fold change: 2.108
225436_at FAM108C1
  Direction: up
  Fold change: 2.142
225590_at SH3RF1
  Direction: up
  Fold change: 2.104
225871_at STEAP2
  Direction: up
  Fold change: 2.153
226136_at GLIPR1
  Direction: up
  Fold change: 2.104
226142_at GLIPR1
  Direction: up
  Fold change: 2.129
226160_at H6PD
  Direction: up
  Fold change: 2.103
226731_at PELO
  Direction: up
  Fold change: 2.098
226800_at EFCAB7
  Direction: up
  Fold change: 2.156
228082_at ASAM
  Direction: up
  Fold change: 2.108
228702_at FLJ43663
  Direction: up
  Fold change: 2.156
228949_at GPR177
  Direction: up
  Fold change: 2.105
228950_s_at GPR177
  Direction: up
  Fold change: 2.126
229194_at PCGF5
  Direction: up
  Fold change: 2.107
229306_at FAM148B
  Direction: up
  Fold change: 2.129
229414_at PITPNC1
  Direction: up
  Fold change: 2.108
229553_at PGM2L1
  Direction: up
  Fold change: 2.113
229623_at FLJ12993
  Direction: up
  Fold change: 2.132
230291_s_at NFIB
  Direction: up
  Fold change: 2.15
232004_at HNRNPR
  Direction: up
  Fold change: 2.126
232267_at GPR133
  Direction: up
  Fold change: 2.135
232311_at B2M
  Direction: up
  Fold change: 2.121
235019_at CPM
  Direction: up
  Fold change: 2.117
235182_at ISM1
  Direction: up
  Fold change: 2.138
235311_at FKBP14
  Direction: up
  Fold change: 2.153
236154_at QKI
  Direction: up
  Fold change: 2.103
238893_at LOC338758
  Direction: up
  Fold change: 2.075
239108_at FAR2
  Direction: up
  Fold change: 2.081
239415_at MAP9
  Direction: up
  Fold change: 2.126
240395_at LOC100128727
  Direction: up
  Fold change: 2.078
241986_at BMPER
  Direction: up
  Fold change: 2.136
243631_at LOC727815
  Direction: up
  Fold change: 2.087
243797_at STK17B
  Direction: up
  Fold change: 2.09
244752_at ZNF438
  Direction: up
  Fold change: 2.083
1553962_s_at RHOB
  Direction: up
  Fold change: 2.094
